Like-named read-outs stand apart in the source and are kept apart here.
Assays:
[1] = test system: 80S14 (p21-deficient) cells; experiment: Cytotoxicity assay using isogenic cell lines: IC50 in 80S14 (p21-deficient) cells, SRB; assay type: cell-based, human; conditions: Homo sapiens
In short: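 IC50 is the concentration halving proliferation relative to untreated controls, read from SRB absorbance (560 nm) after TCA fixation. Test agent dilutions (5 pM–50 μM or 170 pg/ml–10 μg/ml) were left on p21-deficient 80S14 cells (12,000/well, pre-incubated overnight) for 5 days at 37 °C.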

LoVo Colon cell line = experiment: Cytotoxicity assay using LoVo colon cell line, SRB; assay type: cell-based; conditions: Homo sapiens, 96 h, read-out: Inhibition of LoVo
In short: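 Growth inhibition read by sulforhodamine B after 4-day compound exposure at 37 °C. Colon LoVo cells plated at 4000 per well in RPMI/10% FBS a day earlier; doses ranged 5 pM-20 μM or 170 pg/ml-10 μg/ml. IC50 is the concentration halving proliferation versus untreated wells.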

[2] = 120 h, 80S14 (p21-deficient) cells, 5 days, SRB, class symbols, read-out: IC50 for 80S14
[3] = Cellular activity in LoVo cell, 4 days incubation, SRB

| SMILES | IC50 [1, 2] [µM] | IC50 (LoVo Colon cell line; [3]) [µM] | IC50 ([1]; 80S14, 120 h, read-out: IC50 for 80S14 (uM)) [µM] | IC50 (LoVo Colon cell line; LoVo) [µM] |
| --- | --- | --- | --- | --- |
| O=C(c1cccs1)c1cnn2c(-c3cccc(NCc4ccoc4)c3)ccnc12 [Example 369, (7-{3-[(3-Furylmethyl)amino]phenyl}pyrazolo[1,5-a]pyrimidin-3-yl)(thien-2-yl)methanone] | 1 to 10 | 0.1 to 1 |  |  |
| C/C=C/CNc1cccc(-c2ccnc3c(C(=O)c4cccs4)cnn23)c1 [Example 370, (7-{3-[(2E)-But-2-enylamino]phenyl}pyrazolo[1,5-a]pyrimidin-3-yl)(thien-2-yl)methanone] | < 1 | < 0.1 |  |  |
| CC(C)=CCNc1cccc(-c2ccnc3c(C(=O)c4cccs4)cnn23)c1 [Example 371, (7-{3-[(3-Methylbut-2-enyl)amino]phenyl}pyrazolo[1,5-a]pyrimidin-3-yl)(thien-2-yl)methanone] | < 1 | < 0.1 |  |  |
| CC(C)(C)CCNc1cccc(-c2ccnc3c(C(=O)c4cccs4)cnn23)c1 [Example 372, (7-{3-[(3,3-Dimethylbutyl)amino]phenyl}pyrazolo[1,5-a]pyrimidin-3-yl)(thien-2-yl)methanone] | < 1 | < 0.1 |  |  |
| O=C(c1cccs1)c1cnn2c(-c3ccc(Cl)nc3)ccnc12 [Example 373, [7-(6-Chloropyridin-3-yl)pyrazolo[1,5-a]pyrimidin-3-yl](thien-2-yl)methanone] | 10 to 50 | 1 to 20 |  |  |
| O=C(Nc1cc(-c2ccnc3c(C(=O)c4cccs4)cnn23)ccc1F)c1c(F)cccc1F [Example 374, 2,6-Difluoro-N-{2-fluoro-5-[3-(thien-2-ylcarbonyl)pyrazolo[1,5-a]pyrimidin-7-yl]phenyl}benzamide] | < 1 | < 0.1 |  |  |
| O=C(Nc1cc(-c2ccnc3c(C(=O)c4cccs4)cnn23)ccc1F)c1ccccc1F [Example 375, 2-fluoro-N-{2-fluoro-5-[3-(thien-2-ylcarbonyl)pyrazolo[1,5-a]pyrimidin-7-yl]phenyl}benzamide] | < 1 | < 0.1 |  |  |
| O=C(Nc1cc(-c2ccnc3c(C(=O)c4cccs4)cnn23)ccc1F)c1ccccc1Cl [Example 376, 2-Chloro-N-{2-fluoro-5-[3-(thien-2-ylcarbonyl)pyrazolo[1,5-a]pyrimidin-7-yl]phenyl}benzamide] | < 1 | < 0.1 |  |  |
| Cc1ccccc1CNc1cccc(-c2ccnc3c(C(=O)c4cccs4)cnn23)c1 [Example 377, (7-{3-[(2-Methylbenzyl)amino]phenyl}pyrazolo[1,5-a]pyrimidin-3-yl)(thien-2-yl)methanone] | 1 to 10 | 0.1 to 1 |  |  |
| CC(CNc1cccc(-c2ccnc3c(C(=O)c4cccs4)cnn23)c1)c1ccccc1 (stereo not shown) [Example 378, (7-{3-[(2-Phenylpropyl)amino]phenyl}pyrazolo[1,5-a]pyrimidin-3-yl)(thien-2-yl)methanone] | 1 to 10 | 1 to 20 |  |  |
| O=C(c1cccs1)c1cnn2c(-c3cccc(NCC4CCCCC4)c3)ccnc12 [Example 379, (7-{3-[(Cyclohexylmethyl)amino]phenyl)pyrazolo[1,5-a]pyrimidin-3-yl)(thien-2-yl)methanone] | < 1 | < 0.1 |  |  |
| CCCCNc1cccc(-c2ccnc3c(C(=O)c4cccs4)cnn23)c1 [Example 380, {7-[3-(Butylamino)phenyl]pyrazolo[1,5-a]pyrimidin-3-yl}(thien-2-yl)methanone] | < 1 | < 0.1 |  |  |
| O=C(Nc1cc(-c2ccnc3c(C(=O)c4cccs4)cnn23)ccc1F)OCCCl [Example 381, 2-Chloroethyl 2-fluoro-5-[3-(thien-2-ylcarbonyl)pyrazolo[1,5-a]pyrimidin-7-yl]phenylcarbamate] |  |  | < 1 | < 0.1 |
| CC(C)NC(=O)Nc1cc(-c2ccnc3c(C(=O)c4cccs4)cnn23)ccc1F [Example 382, N-{2-Fluoro-5-[3-(thien-2-ylcarbonyl)pyrazolo[1,5-a]pyrimidin-7-yl]phenyl}-N′-isopropylurea] | < 1 | < 0.1 |  |  |
| O=C(Nc1cccc(-c2ccnc3c(C(=O)c4cccs4)cnn23)c1)c1ccc(-n2cccc2)cc1 [Example 383, 4-(1H-pyrrol-1-yl)-N-{3-[3-(thien-2-ylcarbonyl)pyrazolo[1,5-a]pyrimidin-7-yl]phenyl}benzamide] | 1 to 10 | 0.1 to 1 |  |  |
| O=C(Nc1cccc(-c2ccnc3c(C(=O)c4cccs4)cnn23)c1)c1c(Cl)cccc1Cl [Example 384, 2,6-Dichloro-N-{3-[3-(thien-2-ylcarbonyl)pyrazolo[1,5-a]pyrimidin-7-yl]phenyl}benzamide] | 1 to 10 | 0.1 to 1 |  |  |

| SMILES | IC50 [1, 2] [µM] | IC50 (LoVo Colon cell line; [3]) [µM] | IC50 ([1]; 80S14, 120 h, read-out: IC50 for 80S14 (uM)) [µM] | IC50 (LoVo Colon cell line; LoVo) [µM] |
| --- | --- | --- | --- | --- |
| O=C(Nc1cccc(-c2ccnc3c(C(=O)c4cccs4)cnn23)c1)c1cnccn1 [Example 385, N-{3-[3-(Thien-2-ylcarbonyl)pyrazolo[1,5-a]pyrimidin-7-yl]phenyl}pyrazine-2-carboxamide] | < 1 | < 0.1 |  |  |
| N#CN=C(Nc1cccc(-c2ccnc3c(C(=O)c4cccs4)cnn23)c1)Oc1ccccc1 [Example 386, Phenyl N′-cyano-N-{3-[3-(thien-2-ylcarbonyl)pyrazolo[1,5-a]pyrimidin-7-yl]phenyl}imidocarbamate] | 1 to 10 | 1 to 20 |  |  |
| Cn1cccc1C(=O)Nc1cccc(-c2ccnc3c(C(=O)c4cccs4)cnn23)c1 [Example 387, 1-Methyl-N-{3-[3-(thien-2-ylcarbonyl)pyrazolo[1,5-a]pyrimidin-7-yl]phenyl}-1H-pyrrole-2-carboxamide] | < 1 | < 0.1 |  |  |
| O=C(Nc1cc(-c2ccnc3c(C(=O)c4cccs4)cnn23)ccc1F)c1ccncc1 [Example 388, N-{2-Fluoro-5-[3-(thien-2-ylcarbonyl)pyrazolo[1,5-a]pyrimidin-7-yl]phenyl}isonicotinamide] | < 1 | < 0.1 |  |  |
| CC(C)NC(=S)Nc1cccc(-c2ccnc3c(C(=O)c4cccs4)cnn23)c1 [Example 389, N-Isopropyl-N′-{3-[3-(thien-2-ylcarbonyl)pyrazolo[1,5-a]pyrimidin-7-yl]phenyl}thiourea] | < 1 | < 0.1 |  |  |
| O=C(c1cccs1)c1cnn2c(-c3cccc(N(C(=O)c4c(Cl)cccc4Cl)C(=O)c4c(Cl)cccc4Cl)c3)ccnc12 [Example 391, 2,6-Dichloro-N-(2,6-dichlorobenzoyl)-N-{3-[3-(thien-2-ylcarbonyl)pyrazolo[1,5-a]pyrimidin-7-yl]phenyl}benzamide] | 10 to 50 | 1 to 20 |  |  |
| O=C(CC1CCNCC1)Nc1cccc(-c2ccnc3c(C(=O)c4cccs4)cnn23)c1 [Example 393, 2-Piperidin-4-yl-N-{3-[3-(thien-2-ylcarbonyl)pyrazolo[1,5-a]pyrimidin-7-yl]phenyl}acetamide] | 1 to 10 | 0.1 to 1 |  |  |
| CCN(CC)c1cccc(-c2ccnc3c(C(=O)c4cccs4)cnn23)c1 [Example 394, {7-[3-(Diethylamino)phenyl]pyrazolo[1,5-a]pyrimidin-3-yl}(thien-2-yl)methanone] | 1 to 10 | 0.1 to 1 |  |  |
| COc1ccc(/C=C/CNc2cccc(-c3ccnc4c(C(=O)c5cccs5)cnn34)c2)cc1 [Example 396, [7-(3-{[(2E)-3-(4-Methoxyphenyl)prop-2-enyl]amino}phenyl)pyrazolo[1,5-a]pyrimidin-3-yl](thien-2-yl)methanone] | 10 to 50 | 1 to 20 |  |  |
| O=C(c1cccs1)c1cnn2c(-c3cccc(NC/C=C/c4ccc([N+](=O)[O-])cc4)c3)ccnc12 [Example 398, [7-(3-{[(2E)-3-(4-Nitrophenyl)prop-2-enyl]amino}phenyl)pyrazolo[1,5-a]pyrimidin-3-yl] (thien-2-yl)methanone] | 10 to 50 | 1 to 20 |  |  |
| O=C(c1cccs1)c1cnn2c(-c3cccc(NCC=C(c4ccccc4)c4ccccc4)c3)ccnc12 [Example 399, (7-{3-[(3,3-Diphenylprop-2-enyl)amino]phenyl}pyrazolo[1,5-a]pyrimidin-3-yl)(thien-2-yl)methanone] | 10 to 50 | 1 to 20 |  |  |
| CCCCC(CC)CNc1cccc(-c2ccnc3c(C(=O)c4cccs4)cnn23)c1 (stereo not shown) [Example 419, (7-{3-[(2-Ethylhexyl)amino]phenyl}pyrazolo[1,5-a]pyrimidin-3-yl)(thien-2-yl)methanone] | 1 to 10 | 1 to 20 |  |  |
| CN(C)c1ccc(-c2ccnc3c(C(=O)c4cccs4)cnn23)cc1NC(=O)c1ccccc1Cl [Example 421, 2-Chloro-N-{2-(dimethylamino)-5-[3-(thien-2-ylcarbonyl)pyrazolo[1,5-a]pyrimidin-7-yl]phenyl}benzamide] | < 1 | 0.1 to 1 |  |  |
| CCNc1cccc(-c2ccnc3c(C(=O)c4cccs4)cnn23)c1 [Example 422, {7-[3-(Ethylamino)phenyl]pyrazolo[1,5-a]pyrimidin-3-yl}(thien-2-yl)methanone] | 1 to 10 | 0.1 to 1 |  |  |
| O=C(CCCN1CCOCC1)Nc1cccc(-c2ccnc3c(C(=O)c4cccs4)cnn23)c1 [Example 423, 4-Morpholin-4-yl-N-{3-[3-(thien-2-ylcarbonyl)pyrazolo[1,5-a]pyrimidin-7-yl]phenyl}butanamide] | 1 to 10 | 0.1 to 1 |  |  |
| O=C(Nc1cccc(-c2ccnc3c(C(=O)c4cccs4)cnn23)c1)OCc1cccnc1 [Example 424, Pyridin-3-ylmethyl 3-[3-(thien-2-ylcarbonyl)pyrazolo[1,5-a]pyrimidin-7-yl]phenylcarbamate] | < 1 | 1 to 20 |  |  |

Source: patent US20060063784A1, “Method of using substituted pyrazolo [1,5-a] pyrimidines” (priority 2004, published 2006)
